Data published in US20060094003A1, “Acetylcholine-dependent current as a novel ionic target for atrial fibrillation” (priority 2004, published 2006).

Tests used:
[1] = tested on: Ito; conditions: at concentrations of 8 to 30 nM; cited from earlier work
[2] = tested on: AT-remodeled canine left atrial (LA) preparations; experiment: Atrial tachyarrhythmia induction in AT-remodeled coronary-perfused LA preparations in vitro
Method: (§1) Briefly, dogs were subjected to 7-13 days of AT at about 400 beats per minute (bpm). LA preparations were then coronary-perfused and studied intact in vitro or subjected to cardiomyocyte isolation. IKH was studied with patch clamp.
(§2) Adult dogs were divided into control and AT groups. AT dogs were initially anesthetized with diazepam (0.25 mg/kg IV), ketamine (5.0 mg/kg IV), and halothane (1% to 2%) for transvenous insertion of right ventricular (RV) and right atrial (RA) unipolar pacing leads connected to ventricular and atrial pacemakers implanted in the neck. Pacing began 24 hours after pacemaker implantation. AV block was created by radiofrequency catheter ablation and the RV demand-pacemaker was programmed to 80 bpm. The RA was then tachypaced (400 bpm) for 7-13 days.
On study days, dogs were anesthetized with pentobarbital (30 mg·kg^−1 I.V.) and artificially ventilated. Hearts and adjacent lung tissue were excised via a left thoracotomy and immersed in oxygenated Tyrode solution. For cell isolation, the proximal circumflex coronary artery was cannulated and distal ends of PV myocardial sleeves were marked with silk thread prior to enzyme perfusion with collagenase (100 U mL^−1, Worthington, type II), to facilitate identification after enzymatic digestion. PVs were well-perfused and single cardiomyocytes were isolated from all PVs. After isolation, cells were stored at 4° C. and studied within 12 hours.
For standard-microelectrode experiments and atrial-tachyarrhythmia induction, intact tissue preparations including the LA and adjacent PVs were mounted in a Plexiglas chamber and perfused via the left circumflex coronary artery with oxygenated Kreb's solution at 36±0.5° C. Fine-tipped microelectrodes (resistance 15-20 MΩ when filled with 3-mol/L KCL) coupled to a high-input impedance amplifier were used to record Action Potentials.
For atrial tachyarrhythmia induction, single S2-extrastimuli following 15 S1-stimuli at basic cycle lengths (CLs) of 150-400 ms with a 5-second pause to observe the response were used. All stimuli were twice-threshold, 2-ms pulses.

[3] = biological target: T1, Kir2.1 channels (Homo sapiens, UniProt P63252); conditions: at micromolar concentrations; Jin & Lu, 1999; cited from earlier work
T1 sequence (P63252 1-427): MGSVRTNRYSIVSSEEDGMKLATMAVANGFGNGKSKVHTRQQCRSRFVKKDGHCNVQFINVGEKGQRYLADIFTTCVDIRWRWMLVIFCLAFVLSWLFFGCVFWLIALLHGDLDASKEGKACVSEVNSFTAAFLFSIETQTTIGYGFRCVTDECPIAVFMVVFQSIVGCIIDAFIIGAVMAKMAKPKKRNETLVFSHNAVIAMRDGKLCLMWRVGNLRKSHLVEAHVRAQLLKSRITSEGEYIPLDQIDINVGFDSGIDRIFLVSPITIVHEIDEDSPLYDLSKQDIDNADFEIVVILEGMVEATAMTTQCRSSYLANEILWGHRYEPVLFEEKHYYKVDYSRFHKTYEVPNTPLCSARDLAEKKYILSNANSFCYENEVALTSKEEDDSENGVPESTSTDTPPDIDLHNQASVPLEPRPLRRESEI

[4] = tested on: IKH; experiment: Patch-clamp of TQ-sensitive IKH component in LA cardiomyocytes of control and AT dogs; format: cell-based, canine; conditions: at −110 mV
Method: as §1, §2
On study days, dogs were anesthetized with pentobarbital (30 mg·kg^−1 I.V.) and artificially ventilated. Hearts and adjacent lung tissue were excised via a left thoracotomy and immersed in oxygenated Tyrode solution. […]
For single cardiomyocytes, currents were recorded with whole-cell patch-clamp at 36±0.5° C. […] To control for cell-size variability, currents are expressed as densities (pA/pF). […]

[5] = biological target: IKr (Homo sapiens, UniProt Q12809); conditions: at concentrations of 8 to 30 nM; cited from earlier work
Sequence of IKr (Q12809 whole entry): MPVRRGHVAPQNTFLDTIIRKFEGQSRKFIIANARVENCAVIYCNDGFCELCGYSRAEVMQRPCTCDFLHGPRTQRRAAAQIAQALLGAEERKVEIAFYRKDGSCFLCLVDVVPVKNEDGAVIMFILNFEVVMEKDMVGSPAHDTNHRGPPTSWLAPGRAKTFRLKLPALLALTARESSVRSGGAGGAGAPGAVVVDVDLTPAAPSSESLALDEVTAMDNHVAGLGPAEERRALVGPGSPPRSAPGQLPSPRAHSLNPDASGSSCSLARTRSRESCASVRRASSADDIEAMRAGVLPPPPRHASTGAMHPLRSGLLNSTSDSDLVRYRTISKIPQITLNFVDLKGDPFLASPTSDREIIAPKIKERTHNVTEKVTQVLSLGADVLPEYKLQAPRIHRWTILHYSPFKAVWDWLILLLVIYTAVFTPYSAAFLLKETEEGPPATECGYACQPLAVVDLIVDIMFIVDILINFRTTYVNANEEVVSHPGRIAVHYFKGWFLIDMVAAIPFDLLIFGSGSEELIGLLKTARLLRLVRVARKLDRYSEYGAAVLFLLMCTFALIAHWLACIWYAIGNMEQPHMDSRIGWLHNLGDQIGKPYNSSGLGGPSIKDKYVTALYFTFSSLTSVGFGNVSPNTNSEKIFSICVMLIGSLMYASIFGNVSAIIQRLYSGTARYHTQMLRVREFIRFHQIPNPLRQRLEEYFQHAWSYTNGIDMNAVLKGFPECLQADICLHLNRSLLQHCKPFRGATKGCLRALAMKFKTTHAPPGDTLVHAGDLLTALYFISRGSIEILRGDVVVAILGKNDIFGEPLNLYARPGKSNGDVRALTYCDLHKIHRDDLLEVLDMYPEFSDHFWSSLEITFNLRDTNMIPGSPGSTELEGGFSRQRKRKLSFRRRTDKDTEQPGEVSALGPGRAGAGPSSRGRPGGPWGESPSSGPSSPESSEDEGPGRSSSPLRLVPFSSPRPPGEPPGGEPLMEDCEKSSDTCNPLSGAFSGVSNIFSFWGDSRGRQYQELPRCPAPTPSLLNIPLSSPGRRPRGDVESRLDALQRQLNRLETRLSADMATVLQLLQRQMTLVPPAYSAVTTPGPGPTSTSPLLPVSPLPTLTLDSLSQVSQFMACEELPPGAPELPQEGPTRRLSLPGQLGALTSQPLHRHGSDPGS

[6] = tested on: IK1; conditions: at concentrations of 8 to 30 nM; cited from earlier work

For tertiapin-Q, the “effect on Ito (in words)” value [1] is given as “no effect”, the tachyarrhythmia cycle length ([2]; 100 nM TQ, without TQ 108±0.3 ms) is given as 179 ± 0.8 ms and the mean tachyarrhythmia duration ([2]; 100 nM TQ, without TQ 11602±604 ms) is given as 520 ± 6 ms. The “time to termination of arrhythmia after TQ administration” value ([2]; 2 cases of tachyarrhythmia lasting uninterrupted for more than 20 minutes) was ≤ 4 min, the “effect on Kir2.1 channels (in words)” value [3] was “minimal effects” and the “100 nM TQ-sensitive component of IKH” value ([4]; AT dogs) was −2.8±0.5 pA/pF. For the same substance, the “100 nM TQ-sensitive component of IKH” value ([4]; control dogs) was −1.7±0.5 pA/pF, the “effect on IKr (in words)” value [5] was “no effect” and the “effect on IK1 (in words)” value [6] was “no effect”.
